Laboratory results from patent US20190330224A1, “ACC INHIBITORS AND USES THEREOF” (Gilead Apollo, LLC, priority 2015, published 2019).
≈ marks a conversion by molar mass, not a printed value.

What was measured:
C. krusei ATCC 6258 = assay: Anti-Fungal Activity Assay (broth microtiter MIC), C. krusei; type: cell-based, Candida krusei; conditions: Pichia kudriavzevii, ATCC6258, 48 h, 3 replicates; MIC recorded at 48 h; read-out: MIC C. krusei ATCC 6258
How it was run: (§1)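 MIC by visual comparison with growth control, read at 48 h (soraphen also at 24 h). Inoculum: colonies from overnight Sabouraud dextrose agar plates at 35° C, suspended in RPMI 1640+MOPS, density from standard curves. Microtiter broth dilution per CLSI M27-A3; compounds from 1 mg/mL DMSO stocks.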

Fungal ACC2 = Fungal ACC2 (UniProt Q00955); conditions: read-out: Fungal ACC2 (IC50, in vitro ACC2 inhibition)
[1] = tested on: C. parapsilosis ATCC 22019; assay: Anti-Fungal Activity Assay (broth microtiter MIC), C. parapsilosis; type: cell-based, Candida parapsilosis; conditions: Lodderomyces parapsilosis, ATCC22019, 48 h, 3 replicates; MIC recorded at 48 h; read-out: MIC C. parapsilosis ATCC 22019
How it was run: as §1

Human ACC2 = Human ACC2 (Homo sapiens, UniProt O00763); assay: In vitro ACC2 inhibition assay (ADP-Glo), human ACC2; type: biochemical; conditions: 5 nM ACC2, 20 μM ATP, 20 μM acetyl-CoA
C. albicans ATCC 90028 = assay: Anti-Fungal Activity Assay (broth microtiter MIC), C. albicans; type: cell-based, Candida albicans; conditions: Candida albicans, ATCC90028, 48 h, 3 replicates; MIC recorded at 48 h; read-out: MIC C. albicans ATCC 90028
How it was run: as §1

Human ACC2, sequence (O00763 whole entry): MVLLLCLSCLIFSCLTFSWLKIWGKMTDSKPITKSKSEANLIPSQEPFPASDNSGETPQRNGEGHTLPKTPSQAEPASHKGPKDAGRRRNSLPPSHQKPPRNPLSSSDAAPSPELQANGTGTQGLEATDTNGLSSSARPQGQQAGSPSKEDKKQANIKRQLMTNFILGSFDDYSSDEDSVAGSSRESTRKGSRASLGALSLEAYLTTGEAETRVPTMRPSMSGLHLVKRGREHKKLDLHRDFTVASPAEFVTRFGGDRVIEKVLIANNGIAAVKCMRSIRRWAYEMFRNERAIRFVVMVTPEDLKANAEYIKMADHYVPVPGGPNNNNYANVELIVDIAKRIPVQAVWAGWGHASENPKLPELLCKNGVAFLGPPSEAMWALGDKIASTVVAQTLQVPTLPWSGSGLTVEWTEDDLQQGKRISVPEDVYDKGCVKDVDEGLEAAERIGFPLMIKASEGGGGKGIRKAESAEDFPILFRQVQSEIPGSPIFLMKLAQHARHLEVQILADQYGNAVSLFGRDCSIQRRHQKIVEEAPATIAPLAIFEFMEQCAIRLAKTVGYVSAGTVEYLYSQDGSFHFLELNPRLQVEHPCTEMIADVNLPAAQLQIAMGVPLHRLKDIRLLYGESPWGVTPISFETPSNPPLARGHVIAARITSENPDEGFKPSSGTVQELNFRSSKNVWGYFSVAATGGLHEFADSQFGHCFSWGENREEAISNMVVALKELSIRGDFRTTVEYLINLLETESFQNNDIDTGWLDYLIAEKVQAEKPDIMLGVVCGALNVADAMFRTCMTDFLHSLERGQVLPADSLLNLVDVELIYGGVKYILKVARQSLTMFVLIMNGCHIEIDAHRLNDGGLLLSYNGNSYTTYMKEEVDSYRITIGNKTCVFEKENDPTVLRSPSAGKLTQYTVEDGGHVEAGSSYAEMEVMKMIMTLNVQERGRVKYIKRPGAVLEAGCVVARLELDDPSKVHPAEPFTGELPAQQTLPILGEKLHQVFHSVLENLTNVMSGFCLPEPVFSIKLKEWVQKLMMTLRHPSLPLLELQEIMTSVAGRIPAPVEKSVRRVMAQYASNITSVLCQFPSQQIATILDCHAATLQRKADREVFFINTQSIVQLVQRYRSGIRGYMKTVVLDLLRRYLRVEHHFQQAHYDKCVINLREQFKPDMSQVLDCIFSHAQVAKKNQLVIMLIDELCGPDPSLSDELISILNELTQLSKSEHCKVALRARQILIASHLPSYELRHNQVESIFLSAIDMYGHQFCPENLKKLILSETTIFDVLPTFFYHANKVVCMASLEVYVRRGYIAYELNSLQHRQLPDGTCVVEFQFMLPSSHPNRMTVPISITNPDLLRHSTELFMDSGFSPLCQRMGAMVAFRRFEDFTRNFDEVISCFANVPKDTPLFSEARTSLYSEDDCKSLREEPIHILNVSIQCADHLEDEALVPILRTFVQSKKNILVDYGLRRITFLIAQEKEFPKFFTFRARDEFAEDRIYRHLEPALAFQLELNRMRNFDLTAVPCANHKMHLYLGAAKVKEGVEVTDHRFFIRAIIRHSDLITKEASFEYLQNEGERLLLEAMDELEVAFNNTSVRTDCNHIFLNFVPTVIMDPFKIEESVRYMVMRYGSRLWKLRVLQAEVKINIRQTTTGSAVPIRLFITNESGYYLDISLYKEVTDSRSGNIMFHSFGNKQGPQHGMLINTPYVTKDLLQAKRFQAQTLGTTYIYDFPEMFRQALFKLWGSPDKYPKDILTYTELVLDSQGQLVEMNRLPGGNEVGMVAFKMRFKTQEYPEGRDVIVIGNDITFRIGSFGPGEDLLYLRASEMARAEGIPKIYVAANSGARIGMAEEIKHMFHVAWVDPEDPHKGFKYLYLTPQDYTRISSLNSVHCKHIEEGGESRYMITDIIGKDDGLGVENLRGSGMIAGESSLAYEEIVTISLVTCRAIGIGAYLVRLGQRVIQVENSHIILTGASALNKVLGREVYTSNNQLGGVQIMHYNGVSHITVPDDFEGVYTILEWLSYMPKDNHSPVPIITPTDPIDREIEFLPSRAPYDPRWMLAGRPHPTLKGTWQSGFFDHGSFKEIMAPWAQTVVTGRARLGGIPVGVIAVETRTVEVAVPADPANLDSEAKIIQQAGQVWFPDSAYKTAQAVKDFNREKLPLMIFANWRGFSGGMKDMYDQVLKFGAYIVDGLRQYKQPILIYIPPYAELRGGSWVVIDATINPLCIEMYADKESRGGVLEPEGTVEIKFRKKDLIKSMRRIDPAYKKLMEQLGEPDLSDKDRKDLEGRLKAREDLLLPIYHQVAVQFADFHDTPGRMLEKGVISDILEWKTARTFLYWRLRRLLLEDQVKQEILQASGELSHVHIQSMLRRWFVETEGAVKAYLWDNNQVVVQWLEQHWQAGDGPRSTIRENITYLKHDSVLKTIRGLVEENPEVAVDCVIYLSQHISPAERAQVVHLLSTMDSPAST
Fungal ACC2, sequence (Q00955 whole entry): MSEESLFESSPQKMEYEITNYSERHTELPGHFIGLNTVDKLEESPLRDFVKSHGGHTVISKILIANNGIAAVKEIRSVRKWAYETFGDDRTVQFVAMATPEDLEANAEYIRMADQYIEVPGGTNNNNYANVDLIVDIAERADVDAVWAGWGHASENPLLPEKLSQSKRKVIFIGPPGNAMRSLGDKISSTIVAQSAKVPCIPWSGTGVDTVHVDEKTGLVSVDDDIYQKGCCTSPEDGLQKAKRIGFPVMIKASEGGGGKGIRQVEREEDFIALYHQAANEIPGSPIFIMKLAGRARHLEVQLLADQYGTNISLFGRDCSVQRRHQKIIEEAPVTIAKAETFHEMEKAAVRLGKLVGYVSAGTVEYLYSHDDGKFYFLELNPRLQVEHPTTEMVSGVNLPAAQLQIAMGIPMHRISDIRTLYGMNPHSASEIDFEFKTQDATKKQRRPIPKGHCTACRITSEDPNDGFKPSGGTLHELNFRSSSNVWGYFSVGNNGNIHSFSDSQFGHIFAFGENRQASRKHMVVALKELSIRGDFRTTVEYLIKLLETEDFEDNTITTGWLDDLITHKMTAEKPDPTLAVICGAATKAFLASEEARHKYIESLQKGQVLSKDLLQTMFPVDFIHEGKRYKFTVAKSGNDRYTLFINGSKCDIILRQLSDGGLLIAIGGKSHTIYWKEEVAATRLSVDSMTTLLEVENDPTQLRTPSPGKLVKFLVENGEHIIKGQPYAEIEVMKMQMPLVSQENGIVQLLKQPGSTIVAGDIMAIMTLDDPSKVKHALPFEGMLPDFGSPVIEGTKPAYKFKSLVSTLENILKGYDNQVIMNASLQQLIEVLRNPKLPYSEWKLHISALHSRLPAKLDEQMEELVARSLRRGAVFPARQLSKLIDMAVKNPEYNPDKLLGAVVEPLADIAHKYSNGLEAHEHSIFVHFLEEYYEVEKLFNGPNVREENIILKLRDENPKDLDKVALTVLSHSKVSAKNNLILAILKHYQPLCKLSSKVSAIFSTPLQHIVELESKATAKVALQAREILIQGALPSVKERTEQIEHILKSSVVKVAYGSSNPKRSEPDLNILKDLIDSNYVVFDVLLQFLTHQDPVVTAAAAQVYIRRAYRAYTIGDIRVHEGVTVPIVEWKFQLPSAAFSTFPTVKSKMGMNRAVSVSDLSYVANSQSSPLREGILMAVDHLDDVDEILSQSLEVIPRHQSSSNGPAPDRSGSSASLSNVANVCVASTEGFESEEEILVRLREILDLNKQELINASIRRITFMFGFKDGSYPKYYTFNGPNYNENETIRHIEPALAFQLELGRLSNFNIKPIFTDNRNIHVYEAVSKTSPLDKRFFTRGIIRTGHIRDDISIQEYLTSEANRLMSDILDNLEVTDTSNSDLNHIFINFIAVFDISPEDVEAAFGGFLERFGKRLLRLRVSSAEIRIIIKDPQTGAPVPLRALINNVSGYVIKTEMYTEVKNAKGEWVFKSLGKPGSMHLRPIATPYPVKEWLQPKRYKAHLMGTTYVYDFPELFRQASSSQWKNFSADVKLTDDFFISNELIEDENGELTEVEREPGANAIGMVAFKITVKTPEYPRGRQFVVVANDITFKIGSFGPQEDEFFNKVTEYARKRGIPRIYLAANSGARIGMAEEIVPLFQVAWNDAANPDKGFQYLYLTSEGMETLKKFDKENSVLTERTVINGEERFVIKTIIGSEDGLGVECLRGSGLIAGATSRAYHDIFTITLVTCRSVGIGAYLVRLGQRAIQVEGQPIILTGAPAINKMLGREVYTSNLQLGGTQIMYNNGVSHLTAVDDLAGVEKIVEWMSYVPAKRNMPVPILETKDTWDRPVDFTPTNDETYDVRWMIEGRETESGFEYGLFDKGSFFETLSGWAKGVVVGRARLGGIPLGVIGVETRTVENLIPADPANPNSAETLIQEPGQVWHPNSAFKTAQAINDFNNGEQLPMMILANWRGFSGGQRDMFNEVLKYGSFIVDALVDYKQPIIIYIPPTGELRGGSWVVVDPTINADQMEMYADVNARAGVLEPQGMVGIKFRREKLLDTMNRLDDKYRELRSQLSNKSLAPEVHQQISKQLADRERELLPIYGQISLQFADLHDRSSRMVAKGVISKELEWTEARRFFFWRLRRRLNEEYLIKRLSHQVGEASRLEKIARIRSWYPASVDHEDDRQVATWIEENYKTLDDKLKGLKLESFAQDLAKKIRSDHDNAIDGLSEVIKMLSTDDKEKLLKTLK

| SMILES | MIC (C. krusei ATCC 6258) [µg/mL] | IC50 (Fungal ACC2) [nM] | MIC [1] [µg/mL] | IC50 (Human ACC2) [nM] | MIC (C. albicans ATCC 90028) [µg/mL] |
| --- | --- | --- | --- | --- | --- |
| COc1ccccc1[C@H](Cn1c(=O)n([C@@H]2CCCNC2=O)c(=O)c2c(C)c(-c3ncco3)sc21)OCCO [Compound I-61, 1-((R)-2-(2-hydroxyethoxy)-2-(2-methoxyphenyl)ethyl)-5-methyl-6-(oxazol-2-yl)-3-((R)-2-oxopiperidin-3-yl)thieno[2,3-d]pyrimidine-2,4(1H,3H)-dione] | 2.1 to 4 (≈ 3.88 to 7.4 µM) | 0.7 to 2 | 2.1 to 4 (≈ 3.88 to 7.4 µM) | 10 to 100 | 2.1 to 4 (≈ 3.88 to 7.4 µM) |
| COc1ccccc1[C@H](Cn1c(=O)n([C@H]2CCCN(C)C2=O)c(=O)c2c(C)c(-c3ncco3)sc21)OCCO [Compound I-66, 1-((R)-2-(2-hydroxyethoxy)-2-(2-methoxyphenyl)ethyl)-5-methyl-3-((S)-1-methyl-2-oxopiperidin-3-yl)-6-(oxazol-2-yl)thieno[2,3-d]pyrimidine-2,4(1H,3H)-dione] | 2.1 to 4 (≈ 3.79 to 7.21 µM) | 2 to 10 | 2.1 to 4 (≈ 3.79 to 7.21 µM) | 10 to 100 | 2.1 to 4 (≈ 3.79 to 7.21 µM) |
| COc1ccccc1[C@H](Cn1c(=O)n([C@@H]2CCCN(C)C2=O)c(=O)c2c(C)c(-c3ncco3)sc21)OCCO [Compound I-67, 1-((R)-2-(2-hydroxyethoxy)-2-(2-methoxyphenyl)ethyl)-5-methyl-3-((R)-1-methyl-2-oxopiperidin-3-yl)-6-(oxazol-2-yl)thieno[2,3-d]pyrimidine-2,4(1H,3H)-dione] | 2.1 to 4 (≈ 3.79 to 7.21 µM) | 2 to 10 | 2.1 to 4 (≈ 3.79 to 7.21 µM) | 10 to 100 | 2.1 to 4 (≈ 3.79 to 7.21 µM) |
| COc1ccc(F)cc1[C@H](Cn1c(=O)n([C@H]2CCNC2=O)c(=O)c2c(C)c(-c3ncco3)sc21)OCCO [Compound I-68, 1-((R)-2-(5-fluoro-2-methoxyphenyl)-2-(2-hydroxy-ethoxy)ethyl)-5-methyl-6-(oxazol-2-yl)-3-((S)-2-oxopyrrolidin-3-yl)thieno[2,3-d]pyrimidine-2,4(1H,3H)-dione] | 2.1 to 4 (≈ 3.86 to 7.35 µM) | 2 to 10 | 2.1 to 4 (≈ 3.86 to 7.35 µM) | 10 to 100 | 2.1 to 4 (≈ 3.86 to 7.35 µM) |
| COc1ccc(F)cc1[C@H](Cn1c(=O)n([C@@H]2CCNC2=O)c(=O)c2c(C)c(-c3ncco3)sc21)OCCO [Compound I-69, 1-((R)-2-(5-fluoro-2-methoxyphenyl)-2-(2-hydroxy-ethoxy)ethyl)-5-methyl-6-(oxazol-2-yl)-3-((R)-2-oxopyrrolidin-3-yl)thieno[2,3-d]pyrimidine-2,4(1H,3H)-dione] | 2.1 to 4 (≈ 3.86 to 7.35 µM) | 2 to 10 | 2.1 to 4 (≈ 3.86 to 7.35 µM) | 10 to 100 | 2.1 to 4 (≈ 3.86 to 7.35 µM) |
| COCCO[C@@H](Cn1c(=O)n([C@@H]2CCN(C(=O)C(C)C)C2)c(=O)c2c(C)c(-n3nccn3)sc21)c1cc(F)ccc1OC [Compound I-86, 1-((R)-2-(5-fluoro-2-methoxyphenyl)-2-(2-methoxy-ethoxy)ethyl)-3-((R)-1-isobutyrylpyrrolidine-3-yl)-5-methyl-6-(2H-1,2,3-triazol-2-yl)thieno[2,3-d]pyrimidine-2,4(1H,3H)-dione] | 2.1 to 4 (≈ 3.42 to 6.51 µM) | 0.7 to 2 | 2.1 to 4 (≈ 3.42 to 6.51 µM) | 10 to 100 | 2.1 to 4 (≈ 3.42 to 6.51 µM) |
| COc1ccc(F)cc1[C@H](Cn1c(=O)n([C@@H]2CCN(C(=O)C(C)C)C2)c(=O)c2c(C)c(-n3nccn3)sc21)OCCO [Compound I-87, 1-((R)-2-(5-fluoro-2-methoxyphenyl)-2-(2-hydroxy-ethoxy)ethyl)-3-((R)-1-isobutyrylpyrrolidine-3-yl)-5-methyl-6-(2H-1,2,3-triazol-2-yl)thieno[2,3-d]pyrimidine-2,4(1H,3H)-dione] | 2.1 to 4 (≈ 3.5 to 6.66 µM) | 0.7 to 2 | 2.1 to 4 (≈ 3.5 to 6.66 µM) | 10 to 100 | 2.1 to 4 (≈ 3.5 to 6.66 µM) |
| COCCO[C@@H](Cn1c(=O)n([C@H]2CNC(=O)C2)c(=O)c2c(C)c(-n3nccn3)sc21)c1cc(F)ccc1OC [Compound I-88, 1-((R)-2-(5-fluoro-2-methoxyphenyl)-2-(2-methoxy-ethoxy)ethyl)-5-methyl-3-((R)-5-oxopyrrolidin-3-yl)-6-(2H-1,2,3-triazol-2-yl)thieno[2,3-d]pyrimidine-2,4(1H,3H)-dione] | 2.1 to 4 (≈ 3.76 to 7.16 µM) | 0.7 to 2 | 2.1 to 4 (≈ 3.76 to 7.16 µM) | 10 to 100 | 2.1 to 4 (≈ 3.76 to 7.16 µM) |
| COc1ccc(F)cc1[C@H](Cn1c(=O)n([C@H]2CNC(=O)C2)c(=O)c2c(C)c(-n3nccn3)sc21)OCCO [Compound I-89, 1-((R)-2-(5-fluoro-2-methoxyphenyl)-2-(2-hydroxy-ethoxy)ethyl)-5-methyl-3-((R)-5-oxopyrrolidin-3-yl)-6-(2H-1,2,3-triazol-2-yl)thieno[2,3-d]pyrimidine-2,4(1H, 3H)-dione] | 2.1 to 4 (≈ 3.86 to 7.35 µM) | 0.7 to 2 | 2.1 to 4 (≈ 3.86 to 7.35 µM) | 2 to 10 | 2.1 to 4 (≈ 3.86 to 7.35 µM) |
| COCCO[C@@H](Cn1c(=O)n([C@@H]2CNC(=O)C2)c(=O)c2c(C)c(-n3nccn3)sc21)c1cc(F)ccc1OC [Compound I-90, 1-((R)-2-(5-fluoro-2-methoxyphenyl)-2-(2-methoxy-ethoxy)ethyl)-5-methyl-3-((S)-5-oxopyrrolidin-3-yl)-6-(2H-1,2,3-triazol-2-yl)thieno[2,3-d]pyrimidine-2,4(1H,3H)-dione] | 2.1 to 4 (≈ 3.76 to 7.16 µM) | 0.7 to 2 | 2.1 to 4 (≈ 3.76 to 7.16 µM) | 2 to 10 | 2.1 to 4 (≈ 3.76 to 7.16 µM) |
| COc1ccc(F)cc1[C@H](Cn1c(=O)n([C@@H]2CNC(=O)C2)c(=O)c2c(C)c(-n3nccn3)sc21)OCCO [Compound I-91, 1-((R)-2-(5-fluoro-2-methoxyphenyl)-2-(2-hydroxy-ethoxy)ethyl)-5-methyl-3-((S)-5-oxopyrrolidin-3-yl)-6-(2H-1,2,3-triazol-2-yl)thieno[2,3-d]pyrimidine-2,4(1H,3H)-dione] | 2.1 to 4 (≈ 3.86 to 7.35 µM) | 0.7 to 2 | 2.1 to 4 (≈ 3.86 to 7.35 µM) | 2 to 10 | 2.1 to 4 (≈ 3.86 to 7.35 µM) |
| COCCO[C@@H](Cn1c(=O)n([C@@H]2CC(=O)N(C)C2)c(=O)c2c(C)c(-n3nccn3)sc21)c1cc(F)ccc1OC [Compound I-92, 1-((R)-2-(5-fluoro-2-methoxyphenyl)-2-(2-methoxy-ethoxy)ethyl)-5-methyl-3-((R)-1-methyl-5-oxopyrrolidin-3-yl)-6-(2H-1,2,3-triazol-2-yl)thieno[2,3-d]pyrimidine-2,4(1H,3H)-dione] | 2.1 to 4 (≈ 3.67 to 6.99 µM) | 0.7 to 2 | 2.1 to 4 (≈ 3.67 to 6.99 µM) | 10 to 100 | 2.1 to 4 (≈ 3.67 to 6.99 µM) |
| COc1ccc(F)cc1[C@H](Cn1c(=O)n([C@@H]2CC(=O)N(C)C2)c(=O)c2c(C)c(-n3nccn3)sc21)OCCO [Compound I-93, 1-((R)-2-(5-fluoro-2-methoxyphenyl)-2-(2-hydroxy-ethoxy)ethyl)-5-methyl-3-((R)-1-methyl-5-oxopyrrolidin-3-yl)-6-(2H-1,2,3-triazol-2-yl)thieno[2,3-d]pyrimidine-2,4(1H, 3H)-dione] | 2.1 to 4 (≈ 3.76 to 7.16 µM) | 0.7 to 2 | 2.1 to 4 (≈ 3.76 to 7.16 µM) | 2 to 10 | 2.1 to 4 (≈ 3.76 to 7.16 µM) |
| COCCO[C@@H](Cn1c(=O)n([C@H]2CC(=O)N(C)C2)c(=O)c2c(C)c(-n3nccn3)sc21)c1cc(F)ccc1OC [Compound I-94, 1-((R)-2-(5-fluoro-2-methoxyphenyl)-2-(2-methoxy-ethoxy)ethyl)-5-methyl-3-((S)-1-methyl-5-oxopyrrolidin-3-yl)-6-(2H-1,2,3-triazol-2-yl)thieno[2,3-d]pyrimidine-2,4(1H, 3H)-dione] | 2.1 to 4 (≈ 3.67 to 6.99 µM) | 0.7 to 2 | 2.1 to 4 (≈ 3.67 to 6.99 µM) | 2 to 10 | 2.1 to 4 (≈ 3.67 to 6.99 µM) |
| COc1ccc(F)cc1[C@H](Cn1c(=O)n([C@H]2CC(=O)N(C)C2)c(=O)c2c(C)c(-n3nccn3)sc21)OCCO [Compound I-95, 1-((R)-2-(5-fluoro-2-methoxyphenyl)-2-(2-hydroxy-ethoxy)ethyl)-5-methyl-3-((S)-1-methyl-5-oxopyrrolidin-3-yl)-6-(2H-1,2,3-triazol-2-yl)thieno[2,3-d]pyrimidine-2,4(1H,3H)-dione] | 2.1 to 4 (≈ 3.76 to 7.16 µM) | 2 to 10 | 2.1 to 4 (≈ 3.76 to 7.16 µM) | 2 to 10 | 2.1 to 4 (≈ 3.76 to 7.16 µM) |
| COCCO[C@@H](Cn1c(=O)n([C@H]2CCN(C(=O)C(C)C)C2)c(=O)c2c(C)c(-n3nccn3)sc21)c1cc(F)ccc1OC [Compound I-96, 1-((R)-2-(5-fluoro-2-methoxyphenyl)-2-(2-methoxy-ethoxy)ethyl)-3-((S)-1-isobutyrylpyrrolidin-3-yl)-5-methyl-6-(2H-1,2,3-triazol-2-yl)thieno[2,3-d]pyrimidine-2,4(1H,3H)-dione] | 2.1 to 4 (≈ 3.42 to 6.51 µM) | 2 to 10 | 2.1 to 4 (≈ 3.42 to 6.51 µM) | 10 to 100 | 2.1 to 4 (≈ 3.42 to 6.51 µM) |
| COc1ccc(F)cc1[C@H](Cn1c(=O)n([C@H]2CCN(C(=O)C(C)C)C2)c(=O)c2c(C)c(-n3nccn3)sc21)OCCO [Compound I-97, 1-((R)-2-(5-fluoro-2-methoxyphenyl)-2-(2-hydroxy-ethoxy)ethyl)-3-((S)-1-isobutyrylpyrrolidin-3-yl)-5-methyl-6-(2H-1,2,3-triazol-2-yl)thieno[2,3-d]pyrimidine-2,4(1H,3H)-dione] | 2.1 to 4 (≈ 3.5 to 6.66 µM) | 0.7 to 2 | 2.1 to 4 (≈ 3.5 to 6.66 µM) | 10 to 100 | 2.1 to 4 (≈ 3.5 to 6.66 µM) |
| COCCO[C@@H](Cn1c(=O)n(CCN2CCCCC2=O)c(=O)c2c(C)c(-n3nccn3)sc21)c1cc(F)ccc1OC [Compound I-98, (R)-1-(2-(S-fluoro-2-methoxyphenyl)-2-(2-methoxy-ethoxy)ethyl)-5-methyl-3-(2-(2-oxopiperidin-1-yl)ethyl)-6-(2H-1,2,3-triazol-2-yl)thieno[2,3-d]pyrimidine-2,4(1H3H)-dione] | 2.1 to 4 (≈ 3.5 to 6.66 µM) | 2 to 10 | 2.1 to 4 (≈ 3.5 to 6.66 µM) | 10 to 100 | 2.1 to 4 (≈ 3.5 to 6.66 µM) |
